Measurements from the supplement of paper PMC11208160.

Experiment: recombinant barcode read abundance after kanamycin selection (control-corrected) (log10(CPM+1)); higher = more efficient recombination; sequences stand for … in AGTGCAGAGAAAATCGGCCAGTTTTCTCTGCCTGCAGTCCGCATGCCGT…AGATTTATGCAGCGGACTGCCTTTCTCCCAAAGTGATAAACCGGACAGTATCATGGACCGGTTTTCCCGGTAATCCGTATTTGCAAGGTTGGTTTCACT; site = the 11-nt target
Summary of the method: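 Recombination efficiency was calculated from barcode counts at recombinant junctions, normalized to counts per million, averaged and corrected by the control. Each value is given as log10(CPM+1). The constructs were Gibson-cloned oligos (promoter, target, barcode, J23119-driven first 104 bridge RNA bases) in a vector with the remaining 73 bp and a T7-inducible recombinase, co-electroporated into E. coli with a donor plasmid and plated in duplicate on chloramphenicol/ampicillin LB agar (control) or chloramphenicol/ampicillin/kanamycin with 0.1 mM IPTG.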
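Further: IS621 recombinase and bridge RNA in Escherichia coli cells.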

Sequence	recombinant barcode read abundance (log10)
CTGCTGTCTTGGGTTCTAACCTGTTGCCA (site CTGCTGTCTTG)	0.095
CTGCTGTCTTGGGTTCTAACCTGTTGCCA (site CTGGTGTCTTG)	0.402
CTGCTGTCTTGGGTTCTAACCTGTTGCCA (site CTGTTGTCTTG)	0.0953
CTGGATCCTTGGGTTCTAACCTGTTGCCT (site CTCGACCCTAG)	0.0729
CTGGATCCTTGGGTTCTAACCTGTTGCCT (site CTGGATCCTAG)	2.25
CTGGGCTCTTGGGTTCTAACCTGTTGCCA (site CTGGGCTCTTG)	1.14
CTGGGCTCTTGGGTTCTAACCTGTTGCCA (site GTGGGCTCTAG)	0.282
CTGGGTTCTTGGGTTCTAACCTGTTGCCT (site CAGGGTTCTAG)	0.0887
CTGGGTTCTTGGGTTCTAACCTGTTGCCT (site CCGGGTTCTAG)	0.138
CTGGGTTCTTGGGTTCTAACCTGTTGCCT (site CGGGGTTCTAG)	0.312
CTGGGTTCTTGGGTTCTAACCTGTTGCCT (site CTGGGTTCTAG)	0.17
CTGGTCACTTGGGTTCTAACCTGTTGCGG (site CTAGACACTCC)	0.11
CTGGTCACTTGGGTTCTAACCTGTTGCGG (site CTGGTCACTCC)	2.74
CTGGTCCCTTGGGTTCTAACCTGTTGCGG (site CTGATCCCTCC)	0.983
CTGGTCCCTTGGGTTCTAACCTGTTGCGG (site CTGCTCCCTCC)	0.0151
CTGGTCCCTTGGGTTCTAACCTGTTGCGG (site CTGGTCCCTCC)	2.72
CTGGTCCCTTGGGTTCTAACCTGTTGCGG (site CTGTTCCCTCC)	0.151
CTGTCTCCTTGGGTTCTAACCTGTTGCGT (site AGAAGCACTTG)	0.11
CTGTCTCCTTGGGTTCTAACCTGTTGCGT (site CTGTCTCCTAC)	0.833
CTGTGGACTTGGGTTCTAACCTGTTGCAG (site CTCTGGACTGT)	0
CTGTGGACTTGGGTTCTAACCTGTTGCAG (site CTGTGGACTCT)	1.13
CTGTTATCTTGGGTTCTAACCTGTTGCCT (site CTATTATCTAG)	0.127
CTGTTATCTTGGGTTCTAACCTGTTGCCT (site CTGTTATCTAG)	0.237
CTTAAATCTTGGGTTCTAACCTGTTGCCT (site CTTAAATCTAG)	0.0558
CTTAAATCTTGGGTTCTAACCTGTTGCCT (site CTTCAATCTAG)	0.0867
CTTAAATCTTGGGTTCTAACCTGTTGCCT (site CTTGAATCTAG)	0.24

Sequence	recombinant barcode read abundance (log10)
CTTAAATCTTGGGTTCTAACCTGTTGCCT (site CTTTAATCTAG)	0.165
CTTACCGCTTGGGTTCTAACCTGTTGCCT (site CTTACAGCTAG)	0.137
CTTACCGCTTGGGTTCTAACCTGTTGCCT (site CTTACCGCTAG)	1.19
CTTACCGCTTGGGTTCTAACCTGTTGCCT (site CTTACGGCTAG)	0.235
CTTACCGCTTGGGTTCTAACCTGTTGCCT (site CTTACTGCTAG)	0.273
CTTAGCTCTTGGGTTCTAACCTGTTGCCT (site CGTAGGTCTAG)	0.009
CTTAGCTCTTGGGTTCTAACCTGTTGCCT (site CTTAGCTCTAG)	1.15
CTTAGGACTTGGGTTCTAACCTGTTGCCC (site CTTAGGACTAG)	0.374
CTTAGGACTTGGGTTCTAACCTGTTGCCC (site CTTAGGACTCG)	0.283
CTTAGGACTTGGGTTCTAACCTGTTGCCC (site CTTAGGACTGG)	0.404
CTTAGGACTTGGGTTCTAACCTGTTGCCC (site CTTAGGACTTG)	0.00992
CTTCACGCTTGGGTTCTAACCTGTTGCCT (site CTTCACACTAT)	0.177
CTTCACGCTTGGGTTCTAACCTGTTGCCT (site CTTCACGCTAG)	1.21
CTTCAGCCTTGGGTTCTAACCTGTTGCCT (site CTTCAACCTAG)	0.612
CTTCAGCCTTGGGTTCTAACCTGTTGCCT (site CTTCACCCTAG)	0.259
CTTCAGCCTTGGGTTCTAACCTGTTGCCT (site CTTCAGCCTAG)	0.789
CTTCAGCCTTGGGTTCTAACCTGTTGCCT (site CTTCATCCTAG)	0
CTTCAGGCTTGGGTTCTAACCTGTTGCCT (site CTTCAGGCTAG)	0.594
CTTCAGGCTTGGGTTCTAACCTGTTGCCT (site CTTGAGACTAG)	0.0551
CTTCCTTCTTGGGTTCTAACCTGTTGCCT (site CTCCCTTCTAA)	0.128
CTTCCTTCTTGGGTTCTAACCTGTTGCCT (site CTTCCTTCTAG)	0.543
CTTCGAGCTTGGGTTCTAACCTGTTGCCG (site CTTCGAGCTCA)	0.112
CTTCGAGCTTGGGTTCTAACCTGTTGCCG (site CTTCGAGCTCC)	0.0907
CTTCGAGCTTGGGTTCTAACCTGTTGCCG (site CTTCGAGCTCG)	0.873
CTTCGAGCTTGGGTTCTAACCTGTTGCCG (site CTTCGAGCTCT)	0.138
CTTGAGCCTTGGGTTCTAACCTGTTGCGT (site CTTGAGCCTAC)	2.87

Sequence	recombinant barcode read abundance (log10)
CTTGAGCCTTGGGTTCTAACCTGTTGCGT (site GTTGAGTCTAC)	0.0339
CTTGGGCCTTGGGTTCTAACCTGTTGCGG (site CTTGGGCCTCC)	2.67
CTTGGGCCTTGGGTTCTAACCTGTTGCGG (site GTTGGGGCTCC)	0.0414
CTTGGGTCTTGGGTTCTAACCTGTTGCCT (site CTTGGGTCTAG)	0.998
CTTGGGTCTTGGGTTCTAACCTGTTGCCT (site CTTGGTTCTAG)	0.122
CTTTGTACTTGGGTTCTAACCTGTTGCCT (site CCTTGTACTAG)	0.265
CTTTGTACTTGGGTTCTAACCTGTTGCCT (site CTTTGTACTAG)	0.419
GAAAACTCTTGGGTTCTAACCTGTTGCCT (site AGGTCTACTCC)	0.104
GAAAACTCTTGGGTTCTAACCTGTTGCCT (site GAAAACTCTAG)	1.11
GAAAAGTCTTGGGTTCTAACCTGTTGCTG (site CTCGCTCCTTG)	0.185
GAAAAGTCTTGGGTTCTAACCTGTTGCTG (site GAAAAGTCTCA)	1.28
GAAAATCCTTGGGTTCTAACCTGTTGCCT (site GAAAATCCTAG)	0.304
GAAAATCCTTGGGTTCTAACCTGTTGCCT (site GAAACTCCTAG)	0.0115
GAAAATCCTTGGGTTCTAACCTGTTGCCT (site GAAAGTCCTAG)	0.0177
GAAAATCCTTGGGTTCTAACCTGTTGCCT (site GAAATTCCTAG)	0.297
GAAACGGCTTGGGTTCTAACCTGTTGCCT (site GAAAAGGCTAG)	0.0884
GAAACGGCTTGGGTTCTAACCTGTTGCCT (site GAAACGGCTAG)	0.091
GAAACGGCTTGGGTTCTAACCTGTTGCCT (site GAAAGGGCTAG)	0.0962
GAAACGGCTTGGGTTCTAACCTGTTGCCT (site GAAATGGCTAG)	0.323
GAAAGTTCTTGGGTTCTAACCTGTTGCCT (site GAAAGTTCTAG)	1.15
GAAAGTTCTTGGGTTCTAACCTGTTGCCT (site GCAAGTTCTAG)	0.0711
GAAAGTTCTTGGGTTCTAACCTGTTGCCT (site GGAAGTTCTAG)	0.109
GAAAGTTCTTGGGTTCTAACCTGTTGCCT (site GTAAGTTCTAG)	0.153
GAAATGGCTTGGGTTCTAACCTGTTGCCT (site GAAAAGGCTAG)	0.0553
GAAATGGCTTGGGTTCTAACCTGTTGCCT (site GAAACGGCTAG)	0.237
